Laboratory results as given in patent publication US10036011B2, “Scavenger compounds for improved sequencing-by-synthesis” (QIAGEN Waltham, Inc., priority 2016, dated 2018).
Entries after “also recorded” stand apart in the source; their conditions may differ.

What was measured:
[1] = IPA solubility and stability in Cleave 1 solution / Cleave Reagent formulations (concentration curve); format: physicochemical; settings: for Color / Precipitate / Solubility / pH: Cleave 1 solution
Method: IPA was initially tested for solubility and stability in Cleave Reagent formulations. […] IPA was then tested by sequencing in a head-to-head comparison with the reference cleaving reagent, gallic acid, to provide a performance benchmark. IPA was implemented into a sequencing workflow as a standalone powder component to the cleave reagent. See, Example IV.
This example tests alternative formulations and chemistry for a cleave mix including TCEP as a standard reducing agent and IPA as a radical oxygen scavenger. The goal is to test both solubility and the ease of implementation into a kit configuration.
Formation of solid components directly within a Cleave 1 solution using an IPA concentration curve (10 mM, 25 mM and 50 mM) was assessed by measuring solubility, color, precipitate observation and pH level.

[2] = Carnitine and acetylcarnitine solubility and stability in Cleave reagent; format: physicochemical; settings: for solubility into Cleave reagent: 10 mM, 25 mM and 50 mM; for stability against discoloration and precipitation: cleave reagent formulations, storage at room temperature; for solubility in cleave reagent formulations: over a range of concentrations; for stability of solutions (discoloration or precipitate): room temperature (RT), a few hours of storage
Method: L-carnitine and O-acetyl-carnitine were tested for solubility and stability in cleave reagent formulations similarly to IPA. […] See, Example V.
This example tests carnitine-based compounds for solubility into Cleave reagent. Various concentrations (10 mM, 25 mM and 50 mM) of carnitine and acetylcarnitine were tested for solubility and stability.

Which Color ([1]; 10 mM/2-8 C.°, 0 hours) does the source give for `O=C(O)CCc1c[nH]c2ccccc12` [IPA, indole-3-propionic acid] here?
Its Color is “No color; also recorded: Transparent”.

What about the Precipitate ([1]; 10 mM/2-8 C.°, 0 hours) of the same compound?
The Precipitate was “None”.

And the Solubility ([1]; 10 mM/2-8 C.°, 0 hours)?
The Solubility was “Excellent”.

And the pH ([1]; 10 mM/2-8 C.°, 0 hours)?
Its pH is 12.81.

And the Color ([1]; 10 mM/2-8 C.°, 8 hours)?
Its Color is “Transparent; also recorded: No color”.

And the Precipitate ([1]; 10 mM/2-8 C.°, 8 hours)?
Its Precipitate is “None”.

And the Solubility ([1]; 10 mM/2-8 C.°, 8 hours)?
Its Solubility is “Excellent”.

And the pH ([1]; 10 mM/2-8 C.°, 8 hours)?
Its pH is 12.80.

And the Color ([1]; 10 mM/2-8 C.°, 48 hours)?
The Color was “Transparent; also recorded: No color”.

What about the Precipitate ([1]; 10 mM/2-8 C.°, 48 hours) of the same compound?
The Precipitate was “None”.

What about the Solubility ([1]; 10 mM/2-8 C.°, 48 hours) of the same compound?
The Solubility was “Excellent”.

And the pH ([1]; 10 mM/2-8 C.°, 48 hours)?
The pH was 12.83.

And the Color ([1]; 10 mM/RT, 0 hours)?
Its Color is “Transparent; also recorded: No color”.

And the Precipitate ([1]; 10 mM/RT, 0 hours)?
Its Precipitate is “None”.

And the Solubility ([1]; 10 mM/RT, 0 hours)?
Its Solubility is “Excellent”.

What about the pH ([1]; 10 mM/RT, 0 hours) of the same compound?
The pH was 12.88.

What about the Color ([1]; 10 mM/RT, 8 hours) of the same compound?
The Color was “Transparent; also recorded: No color”.

And the Precipitate ([1]; 10 mM/RT, 8 hours)?
Its Precipitate is “None”.

What about the Solubility ([1]; 10 mM/RT, 8 hours) of the same compound?
Its Solubility is “Excellent”.

And the pH ([1]; 10 mM/RT, 8 hours)?
Its pH is 12.83.

What about the Color ([1]; 10 mM/RT, 48 hours) of the same compound?
Its Color is “Transparent; also recorded: No color”.

And the Precipitate ([1]; 10 mM/RT, 48 hours)?
Its Precipitate is “None”.

What about the Solubility ([1]; 10 mM/RT, 48 hours) of the same compound?
Its Solubility is “Excellent”.

What about the pH ([1]; 10 mM/RT, 48 hours) of the same compound?
The pH was 12.79.

What about the Precipitate ([1]; 25 mM RT, 0 hours) of the same compound?
Its Precipitate is “None”.

And the Solubility ([1]; 25 mM RT, 0 hours)?
The Solubility was “Excellent”.

What about the pH ([1]; 25 mM RT, 0 hours) of the same compound?
Its pH is 12.78.

What about the Precipitate ([1]; 25 mM/2-8 C.°, 0 hours) of the same compound?
The Precipitate was “None”.

And the Solubility ([1]; 25 mM/2-8 C.°, 0 hours)?
The Solubility was “Excellent”.

What about the pH ([1]; 25 mM/2-8 C.°, 0 hours) of the same compound?
The pH was 12.75.

What about the Precipitate ([1]; 25 mM/2-8 C.°, 8 hours) of the same compound?
Its Precipitate is “None”.

And the Solubility ([1]; 25 mM/2-8 C.°, 8 hours)?
Its Solubility is “Excellent”.

And the pH ([1]; 25 mM/2-8 C.°, 8 hours)?
The pH was 12.71.

And the Precipitate ([1]; 25 mM/2-8 C.°, 48 hours)?
Its Precipitate is “None”.

And the Solubility ([1]; 25 mM/2-8 C.°, 48 hours)?
The Solubility was “Excellent”.

What about the pH ([1]; 25 mM/2-8 C.°, 48 hours) of the same compound?
The pH was 12.76.

What about the Precipitate ([1]; 25 mM/RT, 8 hours) of the same compound?
The Precipitate was “None”.

And the Solubility ([1]; 25 mM/RT, 8 hours)?
Its Solubility is “Excellent”.

And the pH ([1]; 25 mM/RT, 8 hours)?
Its pH is 12.67.

What about the Precipitate ([1]; 25 mM/RT, 48 hours) of the same compound?
Its Precipitate is “None”.

What about the Solubility ([1]; 25 mM/RT, 48 hours) of the same compound?
Its Solubility is “Excellent”.

What about the pH ([1]; 25 mM/RT, 48 hours) of the same compound?
The pH was 12.71.

And the Color ([1]; 50 mM/2-8 C.°, 0 hours)?
Its Color is “Transparent; also recorded: Pale yellow”.

What about the Precipitate ([1]; 50 mM/2-8 C.°, 0 hours) of the same compound?
Its Precipitate is “None”.

And the Solubility ([1]; 50 mM/2-8 C.°, 0 hours)?
Its Solubility is “Excellent”.

What about the pH ([1]; 50 mM/2-8 C.°, 0 hours) of the same compound?
The pH was 12.67.

What about the Precipitate ([1]; 50 mM/2-8 C.°, 8 hours) of the same compound?
The Precipitate was “None”.

What about the Solubility ([1]; 50 mM/2-8 C.°, 8 hours) of the same compound?
The Solubility was “Excellent”.

What about the pH ([1]; 50 mM/2-8 C.°, 8 hours) of the same compound?
Its pH is 12.61.

What about the Precipitate ([1]; 50 mM/2-8 C.°, 48 hours) of the same compound?
The Precipitate was “None”.

And the Solubility ([1]; 50 mM/2-8 C.°, 48 hours)?
Its Solubility is “Excellent”.

What about the pH ([1]; 50 mM/2-8 C.°, 48 hours) of the same compound?
Its pH is 12.64.

What about the Precipitate ([1]; 50 mM/RT, 0 hours) of the same compound?
Its Precipitate is “None”.

And the Solubility ([1]; 50 mM/RT, 0 hours)?
Its Solubility is “Excellent”.

What about the pH ([1]; 50 mM/RT, 0 hours) of the same compound?
Its pH is 12.61.

And the Precipitate ([1]; 50 mM/RT, 8 hours)?
The Precipitate was “None”.

What about the Solubility ([1]; 50 mM/RT, 8 hours) of the same compound?
Its Solubility is “Excellent”.

What about the pH ([1]; 50 mM/RT, 8 hours) of the same compound?
The pH was 12.69.

And the Precipitate ([1]; 50 mM/RT, 48 hours)?
The Precipitate was “None”.

What about the Solubility ([1]; 50 mM/RT, 48 hours) of the same compound?
Its Solubility is “Excellent”.

What about the pH ([1]; 50 mM/RT, 48 hours) of the same compound?
The pH was 12.72.

What about the “stability against discoloration and precipitation” value ([1]; Cleave Reagent formulations, prolonged storage at room temperature) of the same compound?
Its value is “stable against discoloration and precipitation”.

What about the “stability (lack of discoloration and/or formation of precipitate)” value ([1]; aqueous solution at pH ~12) of the same compound?
The value was “relative stability”.

What about the “solubility in cleave reagent formulations” value ([1]; over a range of concentrations) of the same compound?
The value was “highly soluble”.

And the “solubility in aqueous solution” value ([1]; pH ~12)?
Its value is “highly soluble”.

Which “solubility into Cleave reagent” value [2] does the source give for `C[N+](C)(C)C[C@H](O)CC(=O)[O-]` [L-carnitine] here?
The value was “very soluble”.

And the “stability against discoloration and precipitation” value [2]?
The value was “stable against discoloration and precipitation”.

What about the “solubility in cleave reagent formulations” value [2] of the same compound?
Its value is “highly soluble”.

And the “stability of solutions (discoloration or precipitate)” value [2]?
Its value is “no discoloration or precipitate were observed”.

With `CC(=O)O[C@H](CC(=O)[O-])C[N+](C)(C)C` [O-acetyl-carnitine, O-acetyl-L-carnitine] as the compound, how does the “solubility into Cleave reagent” value [2] read?
Its value is “very soluble”.

What about the “stability against discoloration and precipitation” value [2] of the same compound?
Its value is “stable against discoloration and precipitation”.

What about the “solubility in cleave reagent formulations” value [2] of the same compound?
The value was “highly soluble”.

And the “stability of solutions (discoloration or precipitate)” value [2]?
Its value is “no discoloration or precipitate were observed”.
